In series [1] the test system is C6 Rat glioma lin ^+ clones. As to the kind of experiment: cells. It counts as cell-based. The following applies: for IC50: Rattus norvegicus.
In series [2] the test system is rat glioblastoma C6 cells brain tumour.
In the next series the test system is C6 Rat glioma. In kind it is cell-based.
A further series concerns adults. Conditions: human, in vivo.
Series [3] concerns ΨCRIPlin plus normal C6 cells labeled red with Dil. It counts as cell-based.
Series [4] has as its system ΨCRIPlin /ΨCRIP red or ΨCRIPlin /3T3 red. In kind it is cell-based. Conditions: 100 µg/ml linamarin.
Series [5] relates to FLYA13 Human Amphotropic Packaging Cells. It counts as cell-based. The following applies: parental FLYA13.
A further series deals with Hs 683 Human Glioma. It counts as cell-based. Conditions: parental Hs 683.
The test system of a further series is normal rat brains. Conditions: local administration of up to 9 mg of linamarin.
The subject of a further series is Female hamsters. Conditions: oral dose of 108 mg of linamarin/kg body weight; cited from earlier work.
For series [6] the following is noted: rat kidney only; 1-20 mM linamarin, pH 6 and 7.4, 37°C.
Series [7] has as its system Ag 9181 Human Fibroblasts. It counts as cell-based. The following applies: parental Ag 9181.
The conditions of series [8]: all human tissues; 1-20 mM linamarin, pH 6 and 7.4, 37°C.
The test system of series [9] is Sk-N-MC Human Neuroblastoma lin ^+ clones. The series is described as follows: cells. In kind it is cell-based.
The conditions of series [10]: in the absence of linamarase; cited from earlier work.
The subject of another series is animals. The following applies: cited from earlier work.
Series [11] relates to Hs 683 Human Glioma lin ^+ clones. The series is described as follows: cells. It counts as cell-based. Conditions: Hs 683 lin+.
Series [12] concerns FLYA13 Human Amphotropic Packaging Cells lin ^+ clones. As to the kind of experiment: cells. It counts as cell-based.
For series [13], the system named is U-373 MG Human Glioblastoma lin ^+ clones. As to the kind of experiment: cells. In kind it is cell-based. Conditions: U373 MG, U-373 MG lin+.
Series [14] relates to U-373 MG Human Glioblastoma. In kind it is cell-based. Conditions: parental U-373 MG.
The test system of the next series is C6, ΨCRIP and 3T3. Conditions: very high concentrations of linamarin; cells without linamarase gene.
For series [15], the system named is ΨCRIP Murine Amphotropic Packaging Cells. It counts as cell-based. The following applies: parental ΨCRIP.
Series [16] deals with Sk-N-MC Human Neuroblastoma. In kind it is cell-based. The following applies: parental Sk-N-MC.
In series [17] the test system is ΨCRIP Murine Amphotropic Packaging Cells lin ^+ clones. The series is described as follows: cells. The following applies: Mus musculus.
In series [18] the test system is brain tumor of glioblastoma-C6lin transfected cells. In kind it is in vivo, Wistar rats.
Series [19] deals with NlH 3T3 Murine Fibroblasts. It counts as cell-based. Conditions: parental 3T3.
The test system of series [20] is Neoplastic cells forming a tumor. Conditions: cited from earlier work.
Where [21] appears, read: best clone, read-out: IC50 µg/ml Linamarin lin ^+ clones Best clone.
[22] abbreviates: mean of at least 4 clones, […], read-out: IC50 µg/ml Linamarin lin ^+ clones Mean value.

≈ marks a conversion by molar mass, not a printed value. Entries after “also recorded” stand apart in the source; their conditions may differ. Like-named read-outs stand apart in the source and are kept apart here. Marks after values point to notes of the source that are not given here.

For `CC(C)(C#N)O[C@@H]1O[C@H](CO)[C@@H](O)[C@H](O)[C@H]1O` [linamarin, 2-0H-isobutyronitrile-β-D-glucopyranoside], the IC50 in series [1] (C6lin clone, pH 6.6, read-out: estimated IC50) was 202 µg/mL (≈ 817 µM); in series [1] (C6lin clone, pH 7.4, read-out: estimated IC50) it was 345 µg/mL (≈ 1400 µM); in series [1] (C6 lin+, best clone, read-out: IC50 µg/ml Linamarin lin ^+ clones Best clone), 345 µg/mL; in series [1] (C6 lin+, mean of at least 4 clones, […], read-out: IC50 µg/ml Linamarin lin ^+ clones Mean value), 407 µg/mL; in series [9] (setting [21]), 183 µg/mL; in series [9] (setting [22]), 215 µg/mL. The IC50 was 230 µg/mL in series [11] (setting [21]); 288 µg/mL in series [11] (setting [22]); 77 µg/mL (≈ 311 µM) in [12] (FLYA13lin clone, pH 6.6, read-out: estimated IC50); 195 µg/mL (≈ 789 µM) in [12] (FLYA13lin clone, pH 7.4, read-out: estimated IC50); 195 µg/mL in series [12] (FLYA13 lin+, best clone, read-out: IC50 µg/ml Linamarin lin ^+ clones Best clone); 382 µg/mL in series [12] (FLYA13 lin+, mean of at least 4 clones, […], read-out: IC50 µg/ml Linamarin lin ^+ clones Mean value). Further, the IC50 in [13] (setting [21]) was 145 µg/mL; in series [13] (setting [22]) it was 236 µg/mL; in series [17] (read-out: IC50 µg/ml Linamarin lin ^+ clones Best clone) it was 7 µg/mL; in series [17] (read-out: IC50 µg/ml Linamarin lin ^+ clones Mean value), 32 µg/mL; in series [17] (read-out: concentrations that resulted in 50% cytotoxicity (IC50)) it was 7 to 60 µg/mL (≈ 28.3 to 243 µM). Moreover, in series [1] (in general), the “IC50 of C6lin clones relative to ΨCRIP individual clones” value amounted to 50 times higher. Moreover, the “outcome of the medium size tumour animal” value in series [2] (rat, in vivo) is listed as “died a month later”. Besides, in series [2] (tumours of 220 and 140 mm^3, […]), the “outcome of control animals treated only with the prodrug” value was “died shortly afterwards”. Further, the “tumour outcome, largest and smallest glioblastomas” value in [2] (tumours of 1000 mm^3 and 400 mm^3, […]) is “total eradication of the tumour”. In addition, the “cases developing a recurrence later” value in series [2] (very large tumors (over 500 mm^3 in size), after up to six months) was “approximately 50%”. For the same compound, the “% of survival cells with 1 mg/ml Linamarin” value is listed as 100^a % in the series on C6 Rat glioma (1 mg/ml linamarin, parental C6); 88^a % in [5]; 80% in the series on Hs 683 Human Glioma; 89^a % in series [7]; 80% in series [14]; 85% in [15] (1 mg/ml linamarin). Further, the “% of survival cells with 1 mg/ml Linamarin” value is 80% in series [16] and 90^a % in [19]. Besides, the “survival of C6 alone” value in the series on C6 Rat glioma (10 mg/ml linamarin) is reported as 86%. In addition, the “equivalent of the lethal cyanide dose” value in the series on adults fell in the range of 500 to 1000 mg. Moreover, the “viability of either cell type in the mixture” value in series [3] (100 µg/ml linamarin) was “affect only partially the viability”. Also, the “fate of both cell types in the mixture” value in series [3] (2.5 mg/ml of linamarin) is “died”. Further, in series [4], the “fate of the mixtures” value was “devastated”. Moreover, in the series on normal rat brains, the toxicity result is listed as “No apparent toxicity”. In addition, the “death (cyanide poisoning)” value in the series with Female hamsters is given as 18 % of the animals. In addition, the “linamarase activity (cyanide release from linamarin)” value is listed as “low but detectable levels of cyanide production” in series [6] and “negative results for linamarase activity” in series [8]. For the same compound, the excretion once absorbed entry in series [10] was “excreted unchanged in the urine”. Further, the results for the “toxicity compared with oral dosing” value with animals (administered intraperitoneally) and in the series on animals (similar doses intravenously) were “practically absent” and “much lower”, respectively. The “cyanide detected after linamarin treatment” value in the series on C6, ΨCRIP and 3T3 is reported as “No cyanide was detected”. For the same compound, in series [15] (up to 2 mg/ml of linamarin), the cell survival values result is recorded as “did not substantially decrease cell survival values”. For the same compound, the “outcome of the animal” value in series [18] (similar size tumour, only 1 mg of linamarin) is “finally died as a consequence of the tumour”. Also, the “tumour outcome by magnetic resonance imaging” value in [18] (tumour around 70 mm^3, total of 2.4 mg linamarin over 8 days, local infusion, image three weeks after treatment) is on record as “total absence of the tumoral mass; also recorded: eradicated completely”.

In the case of `N#CO` [sodium cyanate], in series [20], the “higher sensitivity to the inhibitory effects at decreased extracellular pH” value is no less than 50%.

Values taken from EP0943680A1 (priority 1998, dated 1999).
